Experimental data as given in ChEMBL document CHEMBL3217672, “Optimization of a series of dipeptides with a P3 -neopentyl asparagine residue as non-covalent inhibitors of the chymotrypsin-like activity of human 20S proteasome” (Medchemcomm, 2012).
Calls of active or inactive are those of the source. The calls are words filed in the database; no cut-off is given here.

What was measured:
[1] = Cytotoxicity against human Calu6 cells after 72 hrs by luminescence assay; assay type: functional; settings: Calu-6, 72 h, read-out: LC50 (the source's name)
[2] = molecular target: T1, Proteasome Macropain subunit MB1 (Homo sapiens, UniProt P28074); assay: Inhibition of 20S proteasome beta5 subunit in human erythrocytes using Ac-WLA-AMC as substrate by fluorescence assay; assay type: cell-based
T1 sequence (P28074 whole entry): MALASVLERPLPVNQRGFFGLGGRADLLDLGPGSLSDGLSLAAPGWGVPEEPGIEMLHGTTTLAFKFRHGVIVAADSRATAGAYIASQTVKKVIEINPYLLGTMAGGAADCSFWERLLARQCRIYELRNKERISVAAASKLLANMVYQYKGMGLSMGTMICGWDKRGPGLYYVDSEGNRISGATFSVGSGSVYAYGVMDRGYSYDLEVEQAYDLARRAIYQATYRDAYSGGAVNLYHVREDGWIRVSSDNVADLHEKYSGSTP

[3] = molecular target: Prothrombin (Homo sapiens) (UniProt P00734); assay: Inhibition of human purified thrombin at 100 uM
Homo sapiens [4] = species on record: Homo sapiens; assay: Inhibition of human purified chymotrypsin at 100 uM
[5] = molecular target: T2, Coagulation factor XII (Homo sapiens) (UniProt P00748); assay: Inhibition of human purified coagulation factor 12a at 100 uM
T2 sequence (whole entry): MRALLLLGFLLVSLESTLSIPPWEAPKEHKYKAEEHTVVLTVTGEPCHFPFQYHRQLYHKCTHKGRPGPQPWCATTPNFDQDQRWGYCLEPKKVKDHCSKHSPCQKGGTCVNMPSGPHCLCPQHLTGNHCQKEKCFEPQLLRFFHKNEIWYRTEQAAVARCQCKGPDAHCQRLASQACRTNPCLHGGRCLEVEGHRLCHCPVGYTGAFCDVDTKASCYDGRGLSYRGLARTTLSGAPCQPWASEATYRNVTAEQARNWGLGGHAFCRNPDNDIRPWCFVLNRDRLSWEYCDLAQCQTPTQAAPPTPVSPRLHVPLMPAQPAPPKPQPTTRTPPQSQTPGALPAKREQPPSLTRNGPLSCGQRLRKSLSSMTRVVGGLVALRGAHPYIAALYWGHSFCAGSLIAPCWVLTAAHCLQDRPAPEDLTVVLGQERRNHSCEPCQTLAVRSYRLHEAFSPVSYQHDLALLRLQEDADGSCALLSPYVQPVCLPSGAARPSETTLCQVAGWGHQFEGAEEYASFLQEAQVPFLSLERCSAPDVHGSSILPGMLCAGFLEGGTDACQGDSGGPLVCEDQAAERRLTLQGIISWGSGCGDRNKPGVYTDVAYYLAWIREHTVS

Trypsin (Homo sapiens) = Trypsin (Homo sapiens) (UniProt P07477+P07478+P35030); assay: Inhibition of human purified trypsin at 100 uM; assay type: protein assay
[6] = molecular target: T3, Calpain-1 catalytic subunit (Homo sapiens) (UniProt P07384); assay: Inhibition of human purified calpain 1 at 100 uM
T3 sequence (whole entry): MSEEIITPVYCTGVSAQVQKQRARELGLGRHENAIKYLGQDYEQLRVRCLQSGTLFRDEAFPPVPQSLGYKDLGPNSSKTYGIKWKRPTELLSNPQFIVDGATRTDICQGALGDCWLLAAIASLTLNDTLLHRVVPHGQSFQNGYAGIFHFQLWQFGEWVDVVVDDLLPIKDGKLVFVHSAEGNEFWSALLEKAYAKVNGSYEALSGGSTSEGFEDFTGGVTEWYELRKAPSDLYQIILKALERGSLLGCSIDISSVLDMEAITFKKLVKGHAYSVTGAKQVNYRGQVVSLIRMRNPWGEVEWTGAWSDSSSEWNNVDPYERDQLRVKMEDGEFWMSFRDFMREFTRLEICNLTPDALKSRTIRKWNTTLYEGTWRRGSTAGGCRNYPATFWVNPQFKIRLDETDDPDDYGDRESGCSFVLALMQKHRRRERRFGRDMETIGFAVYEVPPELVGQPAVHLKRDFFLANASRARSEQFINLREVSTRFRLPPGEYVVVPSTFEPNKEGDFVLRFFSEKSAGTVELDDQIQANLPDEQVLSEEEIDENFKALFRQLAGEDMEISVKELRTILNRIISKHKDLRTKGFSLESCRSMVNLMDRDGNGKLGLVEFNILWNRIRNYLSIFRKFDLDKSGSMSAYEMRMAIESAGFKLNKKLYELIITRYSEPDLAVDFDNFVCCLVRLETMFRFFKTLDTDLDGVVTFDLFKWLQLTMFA

Homo sapiens [7] = species on record: Homo sapiens; assay: Inhibition of human purified elastase at 100 uM
[8] = molecular target: Plasminogen (Homo sapiens) (UniProt P00747); assay: Inhibition of human purified plasmin at 100 uM
Plasminogen (Homo sapiens), sequence (P00747 97-580 limits assumed): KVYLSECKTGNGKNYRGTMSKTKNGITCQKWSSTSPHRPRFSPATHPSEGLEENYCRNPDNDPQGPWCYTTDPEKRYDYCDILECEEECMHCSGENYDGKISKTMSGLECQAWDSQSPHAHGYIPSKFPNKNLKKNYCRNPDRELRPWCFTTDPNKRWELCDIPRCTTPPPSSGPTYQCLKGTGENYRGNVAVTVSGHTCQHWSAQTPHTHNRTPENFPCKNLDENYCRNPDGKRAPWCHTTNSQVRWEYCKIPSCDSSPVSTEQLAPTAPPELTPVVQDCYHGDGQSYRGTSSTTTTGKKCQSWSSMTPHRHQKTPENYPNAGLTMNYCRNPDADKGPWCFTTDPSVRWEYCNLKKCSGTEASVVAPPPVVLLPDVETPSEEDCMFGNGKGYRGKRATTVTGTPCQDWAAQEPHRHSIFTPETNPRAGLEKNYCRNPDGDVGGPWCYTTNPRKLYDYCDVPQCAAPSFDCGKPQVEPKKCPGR
Plasminogen (Homo sapiens), sequence (P00747 581-810 limits assumed): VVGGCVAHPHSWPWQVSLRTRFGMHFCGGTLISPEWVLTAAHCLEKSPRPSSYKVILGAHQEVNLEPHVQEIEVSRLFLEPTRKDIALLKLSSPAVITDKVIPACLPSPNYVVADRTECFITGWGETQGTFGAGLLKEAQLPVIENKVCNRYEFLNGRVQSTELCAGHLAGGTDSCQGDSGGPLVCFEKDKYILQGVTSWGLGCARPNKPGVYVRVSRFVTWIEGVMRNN

[9] = molecular target: Tissue-type plasminogen activator (Homo sapiens) (UniProt P00750); assay: Inhibition of human purified tissue-type plasminogen activator at 100 uM
Tissue-type plasminogen activator (Homo sapiens), sequence (P00750 36-562 limits assumed): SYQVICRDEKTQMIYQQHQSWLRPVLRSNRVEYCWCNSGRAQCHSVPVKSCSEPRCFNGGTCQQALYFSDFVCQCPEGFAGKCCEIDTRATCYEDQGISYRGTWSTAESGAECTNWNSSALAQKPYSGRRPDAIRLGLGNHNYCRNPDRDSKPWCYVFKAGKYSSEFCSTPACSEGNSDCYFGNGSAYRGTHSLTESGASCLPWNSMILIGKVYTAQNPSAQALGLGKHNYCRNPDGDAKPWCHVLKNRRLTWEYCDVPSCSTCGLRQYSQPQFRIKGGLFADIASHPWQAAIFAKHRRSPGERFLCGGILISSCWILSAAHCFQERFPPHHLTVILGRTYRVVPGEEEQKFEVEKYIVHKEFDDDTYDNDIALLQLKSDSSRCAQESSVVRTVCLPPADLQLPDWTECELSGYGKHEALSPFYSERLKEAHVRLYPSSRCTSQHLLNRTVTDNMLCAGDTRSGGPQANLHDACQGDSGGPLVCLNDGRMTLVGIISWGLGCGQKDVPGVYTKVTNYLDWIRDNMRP

[10] = molecular target: Procathepsin L (Homo sapiens) (UniProt P07711); assay: Inhibition of human purified cathepsin L at 100 uM
Procathepsin L (Homo sapiens), sequence (P07711 114-333 limits assumed): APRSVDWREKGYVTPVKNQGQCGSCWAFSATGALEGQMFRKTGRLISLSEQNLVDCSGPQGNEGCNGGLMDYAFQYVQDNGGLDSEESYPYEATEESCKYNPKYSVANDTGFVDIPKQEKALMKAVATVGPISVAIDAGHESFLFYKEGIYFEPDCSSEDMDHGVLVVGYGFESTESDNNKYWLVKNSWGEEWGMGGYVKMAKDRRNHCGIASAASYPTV

[11] = molecular target: Cathepsin B (Homo sapiens) (UniProt P07858); assay: Inhibition of human purified cathepsin B at 100 uM
[12] = molecular target: T1, Proteasome Macropain subunit MB1; assay: Inhibition of 26S proteasome beta5 subunit in human Calu6 cells using Suc-LLVY-aminoluciferin as substrate after 1hr by luminescence assay; assay type: cell-based, Calu-6

Work on `Cc1cc(C(=O)N[C@@H](CC(=O)NCC(C)(C)C)C(=O)N[C@@H](Cc2cccnc2)C(=O)NCc2ccccc2Cl)no1` yielded a CC50 [1] of 170 nM.
`Cc1ccc(CNC(=O)[C@H](CCc2ccccc2)NC(=O)[C@H](CNC(=O)CC(C)(C)C)NC(=O)C(=O)c2c[nH]c3ccccc23)cc1` gave an IC50 [2] of 910 nM.
`CC(C)(C)CNC(=O)C[C@H](NC(=O)c1ccc(C(C)(C)C)cc1)C(=O)N[C@@H](CCc1ccccc1)C(=O)NCc1ccccc1` showed a CC50 [1] of 31 nM.
With `Cc1ccc(CNC(=O)[C@H](CCc2ccccc2)NC(=O)[C@H](CNC(=O)CC(C)(C)C)NC(=O)c2cc(C)on2)cc1` the IC50 [2] was greater than 1000 nM.
In the case of `Cc1cc(C(=O)N[C@@H](CC(=O)NCC(C)(C)C)C(=O)N[C@@H](Cc2ccc(Cl)cc2)C(=O)NCc2ccccc2Cl)no1`, the IC50 [2] is reported as 16 nM and the CC50 [1] is reported as 1100 nM.
For `Cc1cc(C(=O)N[C@@H](CC(=O)NCC(C)(C)C)C(=O)N[C@@H](CCc2ccccc2)C(=O)NCc2ccccc2Cl)no1`, the inhibition [3] was “inactive”, the inhibition (Homo sapiens [4]) was “inactive” and the inhibition [5] was “inactive”. For the same compound, the inhibition (Trypsin (Homo sapiens)) was “inactive”, the inhibition [6] was “inactive” and the inhibition (Homo sapiens [7]) was “inactive”. For the same compound, the inhibition [8] was “inactive”, the inhibition [9] was “inactive” and the inhibition [10] was “inactive”. The inhibition [11] was “inactive” and the CC50 [1] was 41 nM.
For `CC(=O)N[C@@H](CC(=O)NCC(C)(C)C)C(=O)N[C@@H](CCc1ccccc1)C(=O)NCc1ccccc1`, the CC50 [1] was 890 nM.
With `CC(C)(C)CNC(=O)C[C@H](NC(=O)CCc1ccccc1)C(=O)N[C@@H](CCc1ccccc1)C(=O)NCC1CC1` the IC50 [2] was 12 nM, the CC50 [1] was 150 nM and the IC50 [12] was 360 nM.
`CC(C)(C)CNC(=O)C[C@H](NC(=O)CCc1ccccc1)C(=O)N[C@@H](CCc1ccccc1)C(=O)NCc1ccccc1` showed a CC50 [1] of 89 nM.
For `CC(C)C[C@H](NC(=O)CNC(=O)c1cc(Cl)ccc1Cl)B(O)O` [IXAZOMIB], the CC50 [1] was 14 nM.
`CC(C)(C)CNC(=O)C[C@H](NC(=O)C(C)(C)C)C(=O)N[C@@H](CCc1ccccc1)C(=O)NCc1ccccc1` gave a CC50 [1] of 210 nM.
`CC(C)(C)CNC(=O)C[C@H](NC(=O)CCc1ccccc1)C(=O)N[C@@H](CCc1ccccc1)C(=O)NCc1ccccc1Cl` gave a CC50 [1] of 20 nM.
Compound `C[C@H](NC(=O)[C@H](CC(=O)NCC(C)(C)C)NC(=O)CCc1ccccc1)C(=O)NCc1ccccc1Cl` has a CC50 [1] of 39 nM.
For `Cc1cc(C(=O)N[C@@H](CC(=O)NCC(C)(C)C)C(=O)N[C@@H](C)C(=O)NCc2ccccc2Cl)no1`, the CC50 [1] was 200 nM.
In the case of `Cc1ccc(CNC(=O)[C@H](CCc2ccccc2)NC(=O)[C@H](Cc2nc(C(C)(C)C)no2)NC(=O)c2cc(C)on2)cc1`, the IC50 [2] is reported as 93 nM, the CC50 [1] is reported as 1500 nM and the IC50 [12] is reported as 1700 nM.
With `CC(C)(C)CNC(=O)C[C@H](NC(=O)CCc1ccccc1)C(=O)N[C@@H](Cc1cccnc1)C(=O)NCc1ccccc1Cl` the CC50 [1] was 61 nM.
Compound `Cc1ccc(CNC(=O)[C@H](CCc2ccccc2)NC(=O)[C@H](CCc2ccccc2)NC(=O)[C@H](CCc2ccccc2)NC(=O)c2cnc(C)cn2)cc1` has an IC50 [2] of 16 nM, a CC50 [1] of 130 nM and an IC50 [12] of 53 nM.
With `Cc1cc(C(=O)N[C@@H](CC(=O)NCC(C)(C)C)C(=O)N[C@@H](CCc2ccccc2)C(=O)NCc2ccccc2)no1` the CC50 [1] was 27 nM.
Work on `CCCNC(=O)C[C@H](NC(=O)c1cc(C)on1)C(=O)N[C@@H](CCc1ccccc1)C(=O)NCc1ccc(C)cc1` yielded an IC50 [2] of 160 nM.
With `CC(C)(C)CNC(=O)C[C@H](NC(=O)c1ccc(OCc2ccccc2)cc1)C(=O)N[C@@H](CCc1ccccc1)C(=O)NCc1ccccc1Cl` the CC50 [1] was 4.7 nM.
`CC(C)(C)CNC(=O)C[C@H](NC(=O)CN1CCCCC1)C(=O)N[C@@H](CCc1ccccc1)C(=O)NCc1ccccc1` gave a CC50 [1] of 180 nM.
Compound `CC(C)(C)CNC(=O)C[C@H](NC(=O)c1ccc(OCc2ccccc2)cc1)C(=O)N[C@@H](CCc1ccccc1)C(=O)NCc1ccccc1` has a CC50 [1] of 10 nM.
`CC(C)(C)CNC(=O)C[C@H](NC(=O)Cc1ccc(F)cc1)C(=O)N[C@@H](CCc1ccccc1)C(=O)NCc1ccccc1Cl` showed a CC50 [1] of 94 nM.
Compound `Cc1ccc(CNC(=O)[C@H](CCc2ccccc2)NC(=O)[C@H](CNC(=O)CC(C)(C)C)NC(=O)CCc2ccccc2)cc1` has an IC50 [2] greater than 1000 nM.
`Cc1ccc(CNC(=O)[C@H](CCc2ccccc2)NC(=O)[C@H](Cc2nc(C(C)(C)C)no2)NC(=O)C(=O)c2c[nH]c3ccccc23)cc1` showed an IC50 [2] of 11.6 nM, a CC50 [1] of 36 nM and an IC50 [12] of 30 nM.
For `CC(C)(C)CNC(=O)C[C@H](NC(=O)C(=O)c1c[nH]c2ccccc12)C(=O)N[C@@H](CCc1ccccc1)C(=O)NCc1ccccc1Cl`, the inhibition [3] was “inactive”, the inhibition (Homo sapiens [4]) was “inactive” and the inhibition [5] was “inactive”. The inhibition (Trypsin (Homo sapiens)) was “inactive”, the inhibition [6] was “inactive” and the inhibition (Homo sapiens [7]) was “inactive”. For the same compound, the inhibition [8] was “inactive”, the inhibition [9] was “inactive” and the inhibition [10] was “inactive”. The inhibition [11] was “inactive” and the CC50 [1] was 2.4 nM.
`Cc1cc(C(=O)N[C@@H](CC(=O)NCC(C)(C)C)C(=O)N[C@@H](Cc2ccncc2)C(=O)NCc2ccccc2Cl)no1` showed a CC50 [1] of 210 nM.
In the case of `CC(C)(C)CNC(=O)C[C@H](NC(=O)C(=O)c1c[nH]c2ccccc12)C(=O)N[C@@H](Cc1ccncc1)C(=O)NCc1ccccc1Cl`, the CC50 [1] is reported as 6 nM.
`CC(C)(C)CNC(=O)C[C@H](NC(=O)Cc1ccc(F)cc1)C(=O)N[C@@H](CCc1ccccc1)C(=O)NCc1ccccc1` gave a CC50 [1] of 120 nM.
In the case of `CC(C)C[C@H](NC(=O)[C@H](Cc1ccccc1)NC(=O)c1cnccn1)B(O)O` [BORTEZOMIB], the CC50 [1] is reported as 5.2 nM.
`CC(C)(C)CNC(=O)C[C@H](NC(=O)C(=O)c1c[nH]c2ccccc12)C(=O)N[C@@H](CCc1ccccc1)C(=O)NCc1ccccc1` showed a CC50 [1] of 2.6 nM.
`Cc1ccc(CNC(=O)[C@H](CCc2ccccc2)NC(=O)[C@H](CC(=O)NCC(C)C)NC(=O)c2cc(C)on2)cc1` gave an IC50 [2] of 7.3 nM and a CC50 [1] of 250 nM.
